Data taken from article PMC8960621, “Solution speciation and human serum protein binding of indium(III) complexes of 8-hydroxyquinoline, deferiprone and maltol” (Journal of Biological Inorganic Chemistry, 2022).
“And” between values parts separate entries of the source, which are not always exact repeats. Equal values may be shown once.

Assays:
HSA = biological target: T1, HSA (Homo sapiens, UniProt P02768); assay: Fluorescence lifetime (TCSPC) of the complexes in the presence of HSA; type: binding; details: additional lifetime component in the presence of HSA (2–10 μM), 10 μM complex, pH 7.40
T1 construct: purchased Sigma-Aldrich A8763
T1 sequence (P02768 25-609): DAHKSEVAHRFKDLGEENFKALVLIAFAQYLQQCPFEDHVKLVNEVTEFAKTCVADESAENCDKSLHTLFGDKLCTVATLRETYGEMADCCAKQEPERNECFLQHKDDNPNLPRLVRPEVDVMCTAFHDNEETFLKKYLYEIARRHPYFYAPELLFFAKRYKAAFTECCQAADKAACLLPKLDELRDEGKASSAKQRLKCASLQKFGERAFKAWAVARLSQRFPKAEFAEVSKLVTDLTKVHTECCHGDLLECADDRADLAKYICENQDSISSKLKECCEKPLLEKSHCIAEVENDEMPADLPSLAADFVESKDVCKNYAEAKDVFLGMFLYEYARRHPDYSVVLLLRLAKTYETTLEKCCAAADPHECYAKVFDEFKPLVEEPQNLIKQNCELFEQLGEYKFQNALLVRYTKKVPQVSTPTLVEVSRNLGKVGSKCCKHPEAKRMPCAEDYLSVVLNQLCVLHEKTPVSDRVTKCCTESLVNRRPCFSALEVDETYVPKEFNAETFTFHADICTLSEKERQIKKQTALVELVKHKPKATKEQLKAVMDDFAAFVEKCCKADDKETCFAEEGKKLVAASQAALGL
Procedure: The fluorescence lifetime of InQ3 was determined in the absence and presence of HSA. […] GaQ3 behaves similarly (Table 2), while lifetimes of InD3 were too short (τ ≤ 0.2 ns) for accurate determination with our instrument. By the addition of HSA to the complex, two additional lifetime components appeared for InQ3: τ3 = 5.7 ± 0.3 ns and τ4 = 13.8 ± 0.6 ns, which correspond to the HSA bound forms. […] The GaQ3 ‒ HSA system could be characterized with similar lifetime parameters (Table 2).
Fluorescence lifetime was measured on the same fluorometer equipped with a DeltaHub time-correlated single photon counting (TCSPC) controller applying NanoLED light sources N-300 (λmax = 300 nm) and N-350 (λmax = 355 nm) (Horiba Jobin Yvon). The background (obtained with blank samples) was subtracted from the decay of the samples. The program DAS6 (version 6.6.; Horiba, Jobin Yvon) was used for the analysis of the experimental fluorescence decays. The fluorescence intensity decay over time is described by a sum of exponentials,1 It=∑i=1nαiexp-t/τi where αi and τi are the normalized amplitude and lifetime of component i respectively. The quality of the fit was judged from a χ^2R value close to 1.0 and a random distribution of weighted residuals.

[1] = Fraction of non-dissociated tris-ligand complex at 10 μM, pH 7.40 (UV-vis and speciation calculation); type: physicochemical; details: pH 7.4, constants determined at 0.20 M KCl
Description: (§1) As a first step, interaction of the tris-ligand In(III) complexes with various LMM blood serum components was investigated and compared to that of GaQ3 studied formerly in our research group. The LMM compounds are considered to be more mobile than the high molecular mass components (HMM) such as proteins, and generally their reaction is characterized by faster kinetics. The role of serum compounds might have importance on the distribution of the In(III) complexes since they may be responsible for (partial) displacement of the originally coordinated ligand and they can also form mixed-ligand complexes. […] All the measurements in this work were performed at 25 °C as most of the stability constants used for the modeling calculations published in the literature were determined at this temperature. UV–vis spectra recorded for the tris-ligand complexes at 10 μM concentration (see Fig. S1a for InQ3) in this buffer show 94%, 90% and < 20% non-dissociated InQ3, InD3 and InM3, respectively, which corresponds well to the fractions obtained using the stability constants determined at 0.20 M KCl: 90% (InQ3), 86% (InD3) and 9% InM3 and 6% InM^2+. […]
For the preparation of stock solutions and samples, Milli-Q water was used. Exact concentration of ligand stock solutions was determined via pH-potentiometric titrations (vide infra). […]

apo-transferrin (apoTf) = biological target: T2, apo-transferrin (apoTf) (Homo sapiens, UniProt P02787); assay: Kinetics of the reaction with apoTf followed by UV-vis spectrophotometry; type: binding; details: pH 7.40 (InCl3: 2 equiv.)
T2 construct: purchased Sigma-Aldrich T2036
T2 sequence (P02787 20-698): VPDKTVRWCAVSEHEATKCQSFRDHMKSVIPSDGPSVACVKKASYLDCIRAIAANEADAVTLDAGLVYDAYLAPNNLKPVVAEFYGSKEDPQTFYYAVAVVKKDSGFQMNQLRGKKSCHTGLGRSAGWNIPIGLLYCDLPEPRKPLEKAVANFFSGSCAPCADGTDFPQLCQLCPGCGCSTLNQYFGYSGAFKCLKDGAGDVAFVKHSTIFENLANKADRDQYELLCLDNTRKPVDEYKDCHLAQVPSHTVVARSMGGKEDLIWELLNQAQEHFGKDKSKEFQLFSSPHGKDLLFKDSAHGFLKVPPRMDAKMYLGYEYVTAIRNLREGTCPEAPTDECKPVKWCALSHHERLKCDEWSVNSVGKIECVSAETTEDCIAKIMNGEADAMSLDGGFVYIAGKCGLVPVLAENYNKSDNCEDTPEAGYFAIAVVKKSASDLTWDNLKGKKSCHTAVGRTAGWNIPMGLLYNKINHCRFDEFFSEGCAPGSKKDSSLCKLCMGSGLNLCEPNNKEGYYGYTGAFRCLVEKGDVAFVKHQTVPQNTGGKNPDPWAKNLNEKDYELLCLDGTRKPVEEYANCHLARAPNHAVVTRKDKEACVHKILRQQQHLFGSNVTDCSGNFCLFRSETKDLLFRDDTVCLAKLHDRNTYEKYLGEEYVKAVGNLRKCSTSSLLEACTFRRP
Procedure: Firstly, the kinetics of the reaction between apoTf and InCl3 and the complexes was studied by UV–vis spectrophotometry. The reaction of 2 equiv. […] At the same time Harris et al. have observed slow equilibration with InCl3, that was accelerated (to 6 h) in the presence of NTA [18]. In the case of InQ3 and InD3, the progress of apoTf binding could be followed through the ligand bands of the complexes. […] The Ga(III)-analogue GaQ3 interacted within 1 h with apoTf under similar conditions.
For (apo)Tf containing samples, complex concentrations were 20 μM and 0–2.5 equiv. protein was added. Reference spectra for the complexes, ligands and protein were recorded as well. Samples prepared with blood serum contained three-fold diluted serum and 10 μM metal complexes. UV–vis spectra presented in this paper for complexes InD3 or InQ3 are subtracted by the spectrum of reference protein (HSA (apo)Tf or serum) sample in all cases in favour of the better interpretation of the results.

[2] = Interaction of tris-ligand complexes with low molecular mass serum components (phosphate, citrate, oxalate), UV-vis; type: physicochemical; details: tenfold excess of the LMM ligands (phosphate, citrate, oxalate), pH 7.4
Description: as §1, with “complexes. The complexes of In(III) and Ga(III) formed with HQ (InQ3, GaQ3), deferiprone (InD3) and maltol (InM3) were prepared in an aqueous solution by mixing the respective ligand and the metal ion in 3:1 ratio.” for “complexes.”

[Ga+3].[O-]c1cccc2cccnc12.[O-]c1cccc2cccnc12.[O-]c1cccc2cccnc12 [GaQ3, Tris(8-Quinolinolato)gallium(III), reference compound]
τ3 (HSA): 5.0 ± 0.3 ns
τ4 (HSA): 14.0 ± 0.2 ns

Cc1c([O-])c(=O)ccn1C.Cc1c([O-])c(=O)ccn1C.Cc1c([O-])c(=O)ccn1C.[In+3] [InD3]
fraction of tris-ligand complex obtained using the stability constants [1]: 86%
time to reach equilibrium in the reaction with apoTf (apo-transferrin (apoTf)): ~0.5 h

[In+3].[O-]c1cccc2cccnc12.[O-]c1cccc2cccnc12.[O-]c1cccc2cccnc12 [InQ3, Tris(8-Quinolinolato)indium(III)]
fraction of tris-ligand complex obtained using the stability constants [1]: 90%
complex remained [2]: ca. 34%
τ3 (HSA): 5.7 ns and 5.7 ± 0.3 ns
τ4 (HSA): 13.8 ns and 13.8 ± 0.6 ns
time to reach equilibrium in the reaction with apoTf (apo-transferrin (apoTf)): 3 to 4 h
